Converted amounts (≈) assume the structure as drawn. “And” between values parts separate entries of the source, which are not always exact repeats. Equal entries are not always repeated. Where two headings read alike, the source gives them in different places.
What was measured:
[1] = PAMPA passive permeability pH 7.4; settings: for PAMPA7.4: pH 7.4, passive permeability Pe
NMR solubility assay = assay type: physicochemical; settings: HEPES buffer, 5% DMSO, room temperature
Description: 3. Supplementary experimental: physicochemical assays
The plate was then sealed and incubated at room temperature for 20 hours, without shaking. The plate was centrifuged again for 1 minute at […]
spectrometer equipped with a 5 mm TCI-CryoProbe. […]
deuterated solvent. […] All NMR data were acquired at the […]
contained 16k time-domain data points. Relaxation delay was set to 20 sec. […]

BCL6 BTB domain [2] = target: T1, BCL6 BTB domain (Homo sapiens, UniProt P41182); experiment: biochemical; settings: for BCL6 TR-FRET pIC50 mean: mean of n replicates
Description: Supplementary experimental: protein production, purification and crystallography
3C protease cleavage site.
used without cleaving the tag, as a 6His was needed to bind to the anti-6His-Terbium antibody. For
For both plasmid constructs described above, transformed BL21-AI E. coli cells were grown in LB
carried out at 18 °C for 18 hours. Cells were harvested by centrifugation (5500 g for 30 minutes at 4
oC) and stored at -80 °C.
Cells were re-suspended in a buffer composed of 20 mM Tris pH 8, 250 mM NaCl, 1 mM MgCl2, 0.5
Cells were lysed by sonication followed by centrifugation at 21,000 g for 45 minutes at 4 °C. […]
The final protein was assessed for purity
and molar mass by SDS-PAGE and high-resolution mass spectrometry, respectively.
(§1) directly eluted from the HisTrap FF column without HRV-3C treatment, and submitted to Superdex75
gel filtration as described above. […]
2. Supplementary experimental: biological assay conditions
IC50 values were determined using
a sigmoidal four-parameter logistic fit equation.

BCL6 BTB domain [3] = target: T1, BCL6 BTB domain; experiment: Rapid X-ray screen: ligand density in extended pocket of BCL6 BTB domain; design: made in house; host or cells: E. coli BL21-AI; settings: crystals soaked with compound
Excerpt: Furthermore, we speculated that these represent better starting points since the substituent can be modified further to derive additional interactions and more completely fill the extended pocket. […] Instead, we just checked for the presence of ligand density and, in particular, for electron density in the extended pocket.
as §1
gel filtration as described above.
NH2. A stock solution of WVIP peptide at 100 mM in 100 % DMSO was added to a 2 mg/mL solution
This mixture was then concentrated to a final
protein concentration of 4 mg/mL using a centrifugal concentrator with a 3 kDa molecular weight
complex plus 1 μL of a crystallisation solution consisting of 1 M K 2HPO4, 0.7 M NaH2PO4, 75 mM
drops, followed by 10-120 minutes incubation. Crystals were then cryo-protected in a solution
composed of the crystallisation reagent supplemented with 30 % ethylene glycol and cryo-cooled in
concentrated to a final protein concentration of 10 mg/mL using a centrifugal concentrator with a 3
kDa molecular weight cut-off. Crystals were grown at 18 °C in hanging drops composed of 1.5 μL of
and 0.80 M Na/K Tartrate, against 300 μL of crystallisation solution.
and compounds were soaked as described above for the other construct. Crystals were then cryo-
protected in a solution composed of the crystallisation reagent supplemented with 30 % ethylene
glycol and cryo-cooled in liquid nitrogen.
1.5 Crystallographic data collection, processing and refinement
X-ray data were collected at Diamond Light Source, Harwell campus, Oxfordshire, UK, on beamlines
Research, London, UK, on a Rigaku FRX-AFC11-VariMax Cu-VHF-Pilatus300K. Crystals obtained with […]

[4] = TR-FRET IC50 individual replicates, single replicates, italic values used 10nM BCL6, otherwise 1nM BCL6
[5] = read-out: BCL6 TR-FRET Geo Mean IC50, geometric mean of n replicates, supplement
[6] = read-out: TR-FRET IC50, tables and figures
[7] = read-out: TR-FRET IC50 individual replicates, single replicates, italic values used 10nM BCL6, otherwise 1nM BCL6

| Structure (SMILES) | PAMPA7.4 [1] | solubility at 20 h (NMR solubility assay) | IC50 (BCL6 BTB domain [2]; [4]) | BCL6 TR-FRET pIC50 mean (BCL6 BTB domain [2]) | IC50 (BCL6 BTB domain [2]; [5]) | IC50 (BCL6 BTB domain [2]; [6]) | IC50 (BCL6 BTB domain [2]; [7]) | Ligand density in extended pocket (BCL6 BTB domain [3]) | Papp ([1]; PAMPA, pH 7.4) |
| --- | --- | --- | --- | --- | --- | --- | --- | --- | --- |
| Cc1nnc(C(C)Nc2cc(=O)n(C)c3ccc(Nc4ccnc(Cl)c4C#N)cc23)o1 (centres unmarked) [Compound 13c, 2-Chloro-4-((1-methyl-4-((1-(5-methyl-1,3,4-oxadiazol-2-yl)ethyl)amino)-2-oxo-1,2-dihydroquinolin-6-yl)amino)nicotinonitrile] | <0.2 x10^-6 cms^-1 | 247 µM (≈ 108 µg/mL) | 1070 nM and 680 nM | 6.06 and 6.059 | 872 nM | 870 nM | 690 nM and 1180 nM and 840 nM | – | – |
| CC(Nc1cc(=O)n(CC2CCC2)c2ccc(Nc3ccnc(Cl)c3C#N)cc12)c1ncccn1 (centres unmarked) [Compound 17b, 2-Chloro-4-((1-(cyclobutylmethyl)-2-oxo-4-((1-(pyrimidin-2-yl)ethyl)amino)-1,2-dihydroquinolin-6-yl)amino)nicotinonitrile] | 21 x10^-6 cms^-1 | 32 µM (≈ 15.6 µg/mL) | 250 nM and 210 nM and 640 nM | 6.49 and 6.489 | 324 nM | 320 nM | – | – | – |
| Cn1c(=O)cc(NCC2CC2)c2cc(Nc3cc(C(=O)O)nc(Cl)c3C#N)ccc21 [Compound 11d, 6-Chloro-5-cyano-4-((4-((cyclopropylmethyl)amino)-1-methyl-2-oxo-1,2-dihydroquinolin-6-yl)amino)picolinic Acid] | – | 324 µM (≈ 137 µg/mL) | 270 nM and 420 nM | 6.46 and 6.461 | 350 nM and 346 nM | 350 nM | 360 nM and 350 nM | – | – |
| CNC(=O)C(Nc1cc(=O)[nH]c2ccc(Nc3ccnc(Cl)c3C#N)cc12)C1CC1 (centres unmarked) [Compound 12d, 2-((6-((2-Chloro-3-cyanopyridin-4-yl)amino)-2-oxo-1,2-dihydroquinolin-4-yl)amino)-2-cyclopropyl-N-methylacetamide] | – | 52 µM (≈ 22 µg/mL) | 1180 nM and 970 nM | 5.97 and 5.967 | 1080 nM | 1080 nM | 1100 nM | – | – |
| CC(Nc1cc(=O)n(CC2CC2)c2ccc(Nc3ccnc(Cl)c3C#N)cc12)c1ncccn1 (centres unmarked) [Compound 17a, 2-Chloro-4-((1-(cyclopropylmethyl)-2-oxo-4-((1-(pyrimidin-2-yl)ethyl)amino)-1,2-dihydroquinolin-6-yl)amino)nicotinonitrile] | 8.5 x10^-6 cms^-1 | 72 µM (≈ 34 µg/mL) | 230 nM and 790 nM | 6.38 and 6.379 | 418 nM | 420 nM | 410 nM | – | – |
| CNC(=O)[C@H](C)Nc1cc(=O)[nH]c2ccc(Nc3ccnc(Cl)c3C#N)cc12 [Compound 12c, (S)-2-((6-((2-Chloro-3-cyanopyridin-4-yl)amino)-2-oxo-1,2-dihydroquinolin-4-yl)amino)-N-methylpropanamide] | – | 64 µM (≈ 25.4 µg/mL) | 3390 nM and 2070 nM and 2270 nM and 3400 nM and 3900 nM and 2940 nM and 1540 nM | 5.57 and 5.574 | 2670 nM | 2670 nM | – | – | – |
| Cn1cc(-c2cc(=O)[nH]c3ccc(Nc4ccnc(Cl)c4C#N)cc23)cn1 [Compound 8e, 2-Chloro-4-((4-(1-methyl-1H-pyrazol-4-yl)-2-oxo-1,2-dihydroquinolin-6-yl)amino)nicotinonitrile] | – | – | 1520 nM and 2190 nM | 5.74 and 5.739 | 1820 nM | 1820 nM | – | Yes | – |
| CC(Nc1cc(=O)n(C)c2ccc(Nc3ccnc(Cl)c3C#N)cc12)c1ncn(C)n1 (centres unmarked) [Compound 13d, 2-Chloro-4-((1-methyl-4-((1-(1-methyl-1H-1,2,4-triazol-3-yl)ethyl)amino)-2-oxo-1,2-dihydroquinolin-6-yl)amino)nicotinonitrile] | – | 258 µM (≈ 112 µg/mL) | – | – | – | – | – | – | – |
| CNC(=O)C(C)Nc1cc(=O)n(C)c2ccc(Nc3ccnc(Cl)c3C#N)cc12 (centres unmarked) [Compound 13a, 2-((6-((2-Chloro-3-cyanopyridin-4-yl)amino)-1-methyl-2-oxo-1,2-dihydroquinolin-4-yl)amino)-N-methylpropanamide] | <0.2 x10^-6 cms^-1 | 184 µM (≈ 75.6 µg/mL) | – | – | – | – | – | – | – |
| CCNc1cc(=O)[nH]c2ccc(Nc3ccnc(Cl)c3C#N)cc12 [Compound 8f, 2-Chloro-4-((4-(ethylamino)-2-oxo-1,2-dihydroquinolin-6-yl)amino)nicotinonitrile] | – | – | 1660 nM and 680 nM and 1950 nM and 1130 nM and 1050 nM and 1910 nM | 5.883 | 1310 nM | 1310 nM | – | Yes | – |
| Cn1c(=O)cc(NCCF)c2cc(Nc3cc(C(=O)O)nc(Cl)c3C#N)ccc21 [Compound 11c, 6-Chloro-5-cyano-4-((4-((2-fluoroethyl)amino)-1-methyl-2-oxo-1,2-dihydroquinolin-6-yl)amino)picolinic Acid] | – | 82 µM (≈ 34.1 µg/mL) | – | 6.06 and 6.057 | 880 nM and 878 nM | 880 nM | 870 nM and 890 nM and 880 nM | – | – |
| CN1CCN(c2cc(=O)[nH]c3ccc(Nc4ccnc(Cl)c4C#N)cc23)CC1 [Compound 8c, 2-Chloro-4-((4-(4-methylpiperazin-1-yl)-2-oxo-1,2-dihydroquinolin-6-yl)amino)nicotinonitrile] | – | – | 5770 nM and 1240 nM and 2440 nM and 2900 nM | 5.58 and 5.578 | 2640 nM | 2640 nM | 2550 nM | No | – |
| CCNc1cc(=O)n(C)c2ccc(Nc3cc(C(=O)O)nc(Cl)c3C#N)cc12 [Compound 11a, 6-Chloro-5-cyano-4-((4-(ethylamino)-1-methyl-2-oxo-1,2-dihydroquinolin-6-yl)amino)picolinic Acid] | – | 237 µM (≈ 94.3 µg/mL) | 810 nM and 840 nM and 1120 nM | 6.05 and 6.045 | 901 nM | 900 nM | 890 nM and 870 nM | – | – |
| C[C@@H](Nc1cc(=O)n(C)c2ccc(Nc3ccnc(Cl)c3C#N)cc12)c1ncccn1 [Compound 13f, (R)-2-Chloro-4-((1-methyl-2-oxo-4-((1-(pyrimidin-2-yl)ethyl)amino)-1,2-dihydroquinolin-6-yl)amino)nicotinonitrile] | 0.8 x10^-6 cms^-1 | 126 µM (≈ 54.4 µg/mL) | – | – | – | – | – | – | – |
| CC(Nc1cc(=O)n(C)c2ccc(Nc3ccnc(Cl)c3C#N)cc12)c1ncc(C2CC2)cn1 (centres unmarked) [Compound 24b, 2-Chloro-4-((4-((1-(5-cyclopropylpyrimidin-2-yl)ethyl)amino)-1-methyl-2-oxo-1,2-dihydroquinolin-6-yl)amino)nicotinonitrile] | 14 x10^-6 cms^-1 | 32 µM (≈ 15.1 µg/mL) | – | – | – | – | – | – | – |
| Cc1cnc(C(C)Nc2cc(=O)n(C)c3ccc(Nc4ccnc(Cl)c4C#N)cc23)nc1 (centres unmarked) [Compound 24a, 2-Chloro-4-((1-methyl-4-((1-(5-methylpyrimidin-2-yl)ethyl)amino)-2-oxo-1,2-dihydroquinolin-6-yl)amino)nicotinonitrile] | 5.6 x10^-6 cms^-1 | 31 µM (≈ 13.8 µg/mL) | 60 nM and 90 nM | 7.14 and 7.136 | 70 nM and 73.1 nM | 73 nM | 70 nM | – | – |
| CNC(=O)[C@@H](C)Nc1cc(=O)[nH]c2ccc(Nc3ccnc(Cl)c3C#N)cc12 [Compound 12b, (R)-2-((6-((2-Chloro-3-cyanopyridin-4-yl)amino)-2-oxo-1,2-dihydroquinolin-4-yl)amino)-N-methylpropanamide] | no measurable passive permeability | 64 µM (≈ 25.4 µg/mL) | 300 nM (2×) and 220 nM and 280 nM and 190 nM | 6.60 and 6.596 | 253 nM | 250 nM | 240 nM and 260 nM | – | < 0.2 ×10⁻⁶ cm/s |
| CCCNc1cc(=O)n(C)c2ccc(Nc3cc(C(=O)O)nc(Cl)c3C#N)cc12 [Compound 11b, 6-Chloro-5-cyano-4-((1-methyl-2-oxo-4-(propylamino)-1,2-dihydroquinolin-6-yl)amino)picolinic Acid] | – | 40 µM (≈ 16.5 µg/mL) | 1330 nM and 1810 nM | 5.82 and 5.822 | 1510 nM | 1510 nM | 1440 nM and 1490 nM | – | – |

Source: article PMC8667045, “Into Deep Water: Optimizing BCL6 Inhibitors by Growing into a Solvated Pocket” (Journal of Medicinal Chemistry, 2021)
